Consider eight compounds from PubChem BioAssay (NCI).

Structures are written as SMILES.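 Assay format: 96-well plates, 48-hour exposure. TGI: total growth inhibition.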

Test systems include T-47D breast; UACC-257 melanoma; HT29 colon; MDA-MB-231 breast; MALME-3M melanoma; MDA-N; CCRF-CEM leukemia; HCT-116 colon; COLO 205 colon; 786-0 renal; NCI-H522 lung; MCF7 breast; A498 renal; HCC-2998 colon; SK-MEL-2 melanoma; M14 melanoma; UACC-62 melanoma; OVCAR-4 ovarian; SR leukemia.
Common to all, as to assay: DTP human tumour cell line panel, 48 h

A word on the TGI: it is the concentration giving total growth inhibition. A lower TGI goes with greater sensitivity of the cells. On to `COc1cc(OC)c2c(=O)c(OC)c(-c3ccc4c(c3)OCO4)oc2c1OC`, for which the TGI in the experiment on T-47D breast, in the experiment on UACC-257 melanoma, in the experiment on HT29 colon, in the experiment on MDA-MB-231 breast, with MALME-3M melanoma and with MDA-N was more than 100 µM in each case. Besides, the total growth inhibition concentration (TGI) with CCRF-CEM leukemia is 83.5 µM; in the experiment on HCT-116 colon it was more than 100 µM; with COLO 205 colon it was more than 100 µM; with 786-0 renal, more than 100 µM; with NCI-H522 lung it was more than 100 µM; in the experiment on MCF7 breast, more than 100 µM. In addition, the TGI in the experiment on A498 renal, with HCC-2998 colon, with SK-MEL-2 melanoma, in the experiment on M14 melanoma and in the experiment on UACC-62 melanoma was more than 100 µM in each case.

With `CO/C(=C/C(=O)C(Cl)(Cl)Cl)CC/C(=C\C(=O)C(Cl)(Cl)Cl)OC`, the TGI was 72.5 µM in the experiment on T-47D breast; 51 µM in the experiment on OVCAR-4 ovarian; 43.8 µM in the experiment on UACC-257 melanoma; 51.7 µM in the experiment on SR leukemia; 85.3 µM with HT29 colon; more than 100 µM in the experiment with MDA-MB-231 breast. In addition, the TGI is 66.4 µM with MALME-3M melanoma; 66 µM with MDA-N; more than 100 µM with CCRF-CEM leukemia; 42.2 µM in the experiment on HCT-116 colon; more than 100 µM in the experiment with COLO 205 colon; 60.4 µM in the experiment on 786-0 renal. In addition, the TGI is 57.5 µM in the experiment with NCI-H522 lung; 79.8 µM with MCF7 breast; more than 100 µM with A498 renal; 84.1 µM with SK-MEL-2 melanoma; 88.3 µM with M14 melanoma; 46.8 µM with UACC-62 melanoma.

As for `O=C(O)CC1NC(/C(=C/c2ccccc2O)NC(=O)c2ccccc2)OC1=O` (stereo not given), the TGI in the experiment on T-47D breast was more than 100 µM; with OVCAR-4 ovarian it was more than 38.2 µM; in the experiment on UACC-257 melanoma, more than 100 µM; in the experiment with HT29 colon it was more than 100 µM; with MDA-MB-231 breast, more than 68.3 µM; in the experiment on MALME-3M melanoma it was more than 100 µM. The TGI with MDA-N, in the experiment with CCRF-CEM leukemia, in the experiment on HCT-116 colon, in the experiment on COLO 205 colon, in the experiment with 786-0 renal and in the experiment on NCI-H522 lung was more than 100 µM throughout. Further, the TGI with MCF7 breast, with A498 renal, in the experiment on HCC-2998 colon, in the experiment on SK-MEL-2 melanoma, in the experiment on M14 melanoma and in the experiment with UACC-62 melanoma was more than 100 µM throughout.

As for `N=C(N)SCc1cc(Cl)cc(Cl)c1O`, the TGI was found to be 51.8 µM with T-47D breast; 51.6 µM in the experiment on OVCAR-4 ovarian; 31.6 µM in the experiment with UACC-257 melanoma; 32.1 µM with HT29 colon; 30.5 µM in the experiment with MDA-MB-231 breast; 72.7 µM in the experiment on MALME-3M melanoma. The concentration for total growth inhibition (TGI) in the experiment on MDA-N is 33.1 µM; with CCRF-CEM leukemia it was 35.6 µM; in the experiment on HCT-116 colon it was 29.8 µM; with COLO 205 colon it was 33 µM; with 786-0 renal it was 32.2 µM; in the experiment with NCI-H522 lung, 33.4 µM. The TGI in the experiment with MCF7 breast is 60.1 µM; with A498 renal, 51.7 µM; with HCC-2998 colon, 31.9 µM; with SK-MEL-2 melanoma, 39.6 µM; in the experiment with M14 melanoma, 42.1 µM; in the experiment on UACC-62 melanoma it was 34 µM.

Turning to `Cc1ccc(N=C2S/C(=C3/CCC=C3N3CCOCC3)N(c3ccc(Cl)cc3)C2=Nc2ccc(C)cc2)cc1`, the TGI with T-47D breast, in the experiment with UACC-257 melanoma, in the experiment on SR leukemia, in the experiment with HT29 colon, in the experiment with MDA-MB-231 breast and in the experiment on MALME-3M melanoma was more than 100 µM in each case. In addition, the TGI in the experiment on MDA-N, in the experiment on HCT-116 colon, in the experiment on COLO 205 colon, in the experiment on 786-0 renal, with MCF7 breast and in the experiment with A498 renal was more than 100 µM each time. In addition, the TGI in the experiment on HCC-2998 colon, in the experiment with SK-MEL-2 melanoma, with M14 melanoma and with UACC-62 melanoma was more than 100 µM each time.

Take `O=C1CCCC(=O)N1n1c(Cc2ccccc2)n[nH]c1=O`: the TGI with T-47D breast, with OVCAR-4 ovarian, in the experiment on UACC-257 melanoma, in the experiment on SR leukemia, in the experiment on HT29 colon and in the experiment on MDA-MB-231 breast was more than 100 µM each time. Moreover, the TGI in the experiment on MALME-3M melanoma, in the experiment with MDA-N, with CCRF-CEM leukemia, in the experiment with HCT-116 colon, in the experiment on COLO 205 colon and in the experiment on 786-0 renal was more than 100 µM throughout. The TGI with NCI-H522 lung, with MCF7 breast, with A498 renal, in the experiment with SK-MEL-2 melanoma, with M14 melanoma and in the experiment with UACC-62 melanoma was more than 100 µM throughout.

Consider `COC(=O)C1(C(=O)OC)N=C(C)OC1c1ccccn1` (stereo not given), for which the TGI with T-47D breast, with OVCAR-4 ovarian, in the experiment with UACC-257 melanoma, with SR leukemia, in the experiment on MDA-N and in the experiment with CCRF-CEM leukemia was more than 100 µM each time. Also, the TGI with HCT-116 colon, with COLO 205 colon, in the experiment on 786-0 renal, in the experiment with MCF7 breast, in the experiment on A498 renal and in the experiment with HCC-2998 colon was more than 100 µM throughout. Also, the TGI in the experiment on SK-MEL-2 melanoma, in the experiment with M14 melanoma and in the experiment on UACC-62 melanoma was more than 100 µM each time.

`CCOC(=O)/C(N=Nc1ccc(-n2c(C)nc3ccc(Br)cc3c2=O)cc1)=C(/C)O`: the TGI in the experiment on T-47D breast, with UACC-257 melanoma, with SR leukemia, in the experiment on HT29 colon, with MDA-MB-231 breast and in the experiment on MDA-N was more than 100 µM each time. The TGI in the experiment on CCRF-CEM leukemia, in the experiment on HCT-116 colon, with COLO 205 colon, with 786-0 renal, with MCF7 breast and in the experiment on A498 renal was more than 100 µM throughout. Besides, the TGI in the experiment on SK-MEL-2 melanoma, in the experiment with M14 melanoma and in the experiment on UACC-62 melanoma was more than 100 µM in each case.
